The record followed here is ChEMBL document CHEMBL1135964, “Highly potent inhibitors of TNF-alpha production. Part 2: identification of drug candidates” (Bioorg Med Chem Lett, 2002).

The test system of data set [1] is Mus musculus. Description: Tested for minimum effective dose in LPS-induced shock model in mice after intravenous administration at a dose of 5 mg / kg; survival rate=10/18. In kind it is functional. The conditions noted are these: read-out: MED.
Data set [2] relates to Rattus norvegicus. Kind of data set: Tested for the inhibition of Inhibitor of Tumor necrosis factor alpha production after intravenous administration to rat. In kind it is functional. As to conditions: read-out: ID50 (the source's name).
Data set [3] is described as follows: Tested for the safety in rats reported as minimum lethal dose; mortality rate=0/3. Type of data set: ADME. As to conditions: rat, in vivo.
Data set [4] concerns Rattus norvegicus. Kind of data set: Tested for minimum effective dose in D-(+)-Galactosamine/ LPS-induced hepatitis model in rat after intravenous dosage of 1 g/ 7.5 ug/ 5 mL/kg; survival rate=7/18. In kind it is functional. As to conditions: read-out: MED.
In data set [5] the test system is Rattus norvegicus. Kind of data set: Tested for the inhibition of umor necrosis factor alpha production after intravenous administration at the dosage of 30 mg/kg to rat. In kind it is functional.
Data set [6] deals with Rattus norvegicus. Kind of data set: Tested for the inhibition of Tumor necrosis factor alpha production after intravenous administration to rat. In kind it is functional. The conditions noted are these: read-out: ID50 (the source's name).
Data set [7] deals with Mus musculus. Kind of data set: Tested for the inhibition of Tumor necrosis factor alpha production after intravenous administration in mice. The conditions noted are these: read-out: ID50 (the source's name). Type of data set: functional.
The test system of data set [8] is Mus musculus. Description: Tested for the inhibition of Tumor necrosis factor alpha production after intravenous administration at the dosage of 10 mg/kg to mice; no activity was observed. Type of data set: functional.
Data set [9] concerns Rattus norvegicus. Description: Tested for the inhibition of Tumor necrosis factor alpha production after intravenous administration at the dosage of 10 mg/kg to rat. In kind it is functional. The conditions noted are these: for inhibition in vivo at 10 mg/kg: Rattus norvegicus.
Data set [10] relates to Mus musculus. Description: Tested for minimum effective dose in LPS-induced shock model in mice after intravenous administration at a dose of 5 mg / kg; survival rate=14/20. The conditions noted are these: read-out: MED. In kind it is functional.
For data set [11], the system named is Rattus norvegicus. Description: Tested for minimum effective dose in D-(+)-Galactosamine/ LPS-induced hepatitis model in rat after intravenous dosage of 1 g/ 7.5 ug/ 5 mL/kg; survival rate=6/18. Type of data set: functional. The conditions noted are these: read-out: MED.
For data set [12], the system named is Rattus norvegicus. Kind of data set: Tested for minimum effective dose in D-(+)-Galactosamine/ LPS-induced hepatitis model in rat after intravenous dosage of 1 g/ 7.5 ug/ 5 mL/kg; survival rate=8/18. As to conditions: read-out: MED. In kind it is functional.
A short description of data set [13]: Tested for the safety in rats reported as minimum lethal dose; mortality rate=1/3. Type of data set: ADME. The conditions noted are these: rat, in vivo.

Consider `CCCCCCCC(=O)N[C@H](c1cccc(OC)c1)[C@H](C)OP(=O)([O-])[O-].[Na+].[Na+]`, for which the minimal effective dose in data set [1] was 0.1 mg/kg; in data set [4], 0.3 mg/kg. In addition, in [2], the ED50 amounted to 0.03 mg/kg. This molecule gave an MLD in data set [3] of over 100 mg/kg.

For orientation: inhibition in vivo means the change of the read-out against control, counted positive when it falls. For `CCCCCCCC(=O)N[C@@H](c1ccccc1)[C@@H](C)OP(=O)(O)O`, the inhibition in vivo at 30 mg/kg in data set [5] stood at 5%.

Consider `CCCCCCCC(=O)N[C@@H](c1cccc(OC)c1)[C@H](C)OP(=O)([O-])[O-].[Na+].[Na+]`, for which, in [6], the ED50 amounted to 3.7 mg/kg.

As for `CCCCCCCC(=O)N[C@H](c1ccccc1)C1(OP(=O)([O-])[O-])CCC1.[Na+].[Na+]`, the ED50 in [7] was found to be 9.5 mg/kg.

Take `CCCCCCCC(=O)N[C@@H](COP(=O)([O-])[O-])c1ccccc1.[Na+].[Na+]`: in [6], the ED50 was 3 mg/kg.

For `CCCCCCCC(=O)N[C@@H](CO)c1ccccc1`, the inhibition in vivo at 10 mg/kg in [8] came out at 14%.

Turning to `CCCCCCCC(=O)N[C@@H](c1ccccc1)[C@H](C)OP(=O)(O)O`, in data set [5], the inhibition in vivo at 30 mg/kg was 17%.

`CCCCCCCC(=O)N[C@H](c1ccccc1)[C@H](CO)OP(=O)(O)O`: the inhibition in vivo at 10 mg/kg in [9] was 42%.

With `CCCCCCCC(=O)N(C)[C@@H](COP(=O)([O-])[O-])c1ccccc1.[Na+].[Na+]`, the ED50 in [6] was found to be 9.8 mg/kg.

Take `CCCCCCCC(=O)N[C@H](c1cccc(OC)c1)C(C)(C)OP(=O)(O)O`: the inhibition in vivo at 10 mg/kg in data set [9] was 12%.

Turning to `CCCCCCOC(=O)N[C@H](c1cccc(OC)c1)[C@H](C)OP(=O)([O-])[O-].[Na+].[Na+]`, the minimal effective dose in data set [10] and in data set [11] was 0.1 mg/kg each time. The MLD in [3] was over 100 mg/kg. The ED50 in [6] was found to be 0.02 mg/kg.

With `CCCCCCCC(=O)N[C@H](c1ccccc1)[C@@H](C)OP(=O)(O)O`, in data set [5], the inhibition in vivo at 30 mg/kg stood at 23%.

In general, Inhibition refers to the relative decrease from the control value, in per cent. Molecule `CCCCCCCC(=O)N[C@@H]1c2ccccc2C[C@@H]1OP(=O)([O-])[O-].[Na+].[Na+]` displayed an Inhibition in data set [9] of 34%.

With `CCCCCCCC(=O)N[C@H](c1ccccc1)[C@@H](OP(=O)(O)O)c1ccccc1`, in data set [9], the inhibition in vivo at 10 mg/kg turned out to be 3%.

With `CCCCCCCC(=O)N[C@H](c1cccc(OC)c1)[C@@H](C)OP(=O)(O)O`, the inhibition in vivo at 10 mg/kg in data set [9] was -13%.

In the case of `CCCCCCCC(=O)N[C@@H](c1cccc(OC)c1)[C@@H](C)OP(=O)(O)O`, in data set [9], the inhibition in vivo at 10 mg/kg came to 38%.

Consider `CCCCCCCC(=O)N[C@@H](COP(=O)([O-])[O-])c1cccc(OC)c1.[Na+].[Na+]`, for which the ED50 in data set [6] turned out to be 0.26 mg/kg.

On to `CCCCCCCC(=O)N[C@H](c1ccccc1)[C@H](C)OP(=O)([O-])[O-].[Na+].[Na+]`, for which, in data set [6], the ED50 came out at 4.5 mg/kg.

In the case of `CCCCCCCC(=O)N[C@H](c1cccc(OC(C)C)c1)[C@H](C)OP(=O)([O-])[O-].[Na+].[Na+]`, the minimal effective dose in data set [1] and in data set [12] was 0.3 mg/kg throughout. Moreover, in [6], the ED50 was 0.05 mg/kg. In data set [13], this molecule had an MLD of 100 mg/kg.

With `CCCCCCCC(=O)N[C@@H]1c2ccccc2C[C@H]1OP(=O)([O-])[O-].[Na+].[Na+]`, the ED50 in data set [6] worked out at 2.4 mg/kg.
